# Marks after values point to notes of the source that are not given here.
# Experiments:
# Phytophthora infestans = format: in vivo; conditions: tomato plants, preventive spray, 500 ppm of active ingredient, evaluated 5 days after inoculation
# [1] = pH 2.7
# Method: Measurement of IogP values was performed according EEC directive 79/831 Annex V.A8 by HPLC (High Performance Liquid Chromatography) on reversed phase columns with the following methods:
# Measurement of LC-MS was done at pH 2.7 with 0.1% formic acid in water and with acetonitrile (contains 0.1% formic acid) as eluent with a linear gradient from 10% acetonitrile to 95% acetonitrile.
# Calibration was done with not branched alkan2-ones (with 3 to 16 carbon atoms) with known logP-values (measurement of logP values using retention times with linear interpolation between successive alkanones). lambda-maX-values were determined using UV-spectra from 200 nm to 400 nm and the peak values of the chromatographic signals.
SMILES,% efficacy (Phytophthora infestans) [%],LogP [1]
Cn1c(/C(=N\OCc2nc(NC(=O)COc3ccccc3)cs2)c2ccccc2)noc1=O [Example 28],73,3.30^[a]
C=CCOC(=O)Nc1csc(CO/N=C(/c2ccccc2)c2noc(=O)n2C)n1 [Example 42],–,3.02^[a]
NC(=NO)C(=NOCc1nc(Br)cs1)c1ccccc1 [Example V-2],–,1.86^[a]
C#CCCOC(=O)Nc1csc(CO/N=C(/c2ccccc2)c2noc(=O)n2C)n1 [Example 1],98,2.97^[a]
CCCC/C=C/c1csc(CO/N=C(/c2ccccc2)c2noc(=O)n2C)n1 [Example 24],98,4.77^[a]
CCCC#Cc1csc(CON=C(C(N)=NO)c2ccccc2)n1 [Example V-3],–,2.59^[a]
Cn1c(/C(=N\OCc2nc(NC(=O)COCc3ccccc3)cs2)c2ccccc2)noc1=O [Example 35],93,3.45^[a]
Cn1c(/C(=N\OCc2nc(NC(=O)C(C)(C)C)cs2)c2ccccc2)noc1=O [Example 11],100,3.23^[a]
Cn1c(/C(=N\OCc2nc(C(=O)NC3CCCCC3)cs2)c2ccccc2)noc1=O [Example 9],79,3.43^[a]
CCCC#Cc1csc(CON=C(C#N)c2ccccc2)n1 [Example IV-6],–,4.41^[a]
CCCCCC#Cc1csc(CON=C(C#N)c2ccccc2)n1 [Example IV-10],–,5.27^[a]
COC(=O)c1csc(CON=C(C#N)c2ccccc2)n1 [Example IV-2],–,2.80^[a]
CCCC(C)C(=O)Nc1csc(CO/N=C(/c2ccccc2)c2noc(=O)n2C)n1 (centres unmarked) [Example 36],99,3.45^[a]
Cn1c(/C(=N\OCc2nc(/C=C/Cc3ccccc3)cs2)c2ccccc2)noc1=O [Example 41],–,4.39^[a]
N#CC(=NOCc1nc(C#CC2CC2)cs1)c1ccccc1 [Example IV-8],–,4.04^[a]
Cn1c(/C(=N\OCc2nc(C#CC3CCCCC3)cs2)c2ccccc2)noc1=O [Example 31],94,4.80^[a]

SMILES,% efficacy (Phytophthora infestans) [%],LogP [1]
CCCCC#Cc1csc(CO/N=C(/c2ccccc2)c2noc(=O)[nH]2)n1 [Example 25],–,3.39^[a]
CCCCC#Cc1csc(CON=C(C(N)=NO)c2ccccc2)n1 [Example V-4],–,2.98^[a]
O=c1[nH]c(/C(=N\OCc2nc(C#CC3CCCCC3)cs2)c2ccccc2)no1 [Example 32],–,4.33^[a]
N#CC(=NOCc1nc(C#CCCCc2ccccc2)cs1)c1ccccc1 [Example IV-5],–,5.19^[a]
Cn1c(/C(=N\OCc2nc(C#CCc3ccccc3)cs2)c2ccccc2)noc1=O [Example 39],88,4.07^[a]
N#CC(=NOCc1nc(C#CC2CCCCC2)cs1)c1ccccc1 [Example IV-9],–,5.42^[a]
NC(=NO)C(=NOCc1nc(C#CC2CCCCC2)cs1)c1ccccc1 [Example V-5],–,3.42^[a]
Cn1c(/C(=N\OCc2nc(C#CCCc3ccccc3)cs2)c2ccccc2)noc1=O [Example 12],100,4.30^[a]
CCCCCC#Cc1csc(CON=C(C(N)=NO)c2ccccc2)n1 [Example V-6],–,3.37^[a]
CCCCC#Cc1csc(CON=C(C#N)c2ccccc2)n1 [Example IV-7],–,4.83^[a]
CCCC#Cc1csc(CO/N=C(/c2ccccc2)c2noc(=O)[nH]2)n1 [Example 26],–,3.47^[a]
NC(=NO)C(=NOCn1ccc(N)n1)c1ccccc1 [Example V-1],–,0.65^[a]
CCCCCC#Cc1csc(CO/N=C(/c2ccccc2)c2noc(=O)n2C)n1 [Example 37],100,4.72^[a]
CCCCC/C=C/c1csc(CO/N=C(/c2ccccc2)c2noc(=O)n2C)n1 [Example 30],97,5.23^[a]
N#CC(=NOCn1ccc(N)n1)c1ccccc1 [Example IV-4],–,1.86^[a]
Cn1oc(=O)nc1/C(=N\OCc1nc(C(=O)NC(C)(C)C)cs1)c1ccccc1 [Example 43],–,2.61^[a]

# Reference: US9743665B2, “Fungicidal 3-{phenyl[heterocyclylmethoxy)imino]methyl}-oxadiazolone derivatives” (BAYER CROPSCIENCE AKTIENGESELLSCHAFT, priority 2013, dated 2017)
